# Assay results from US20250281378A1, “PEPTIDE HAVING ACTIVITY OF PREVENTING HAIR LOSS OR PROMOTING HAIR GROWTH AND USE THEREOF” (CAREGEN CO., LTD., priority 2021, published 2025).
# Tests used:
# [1] = system: human hair follicle dermal papilla cells (HHFDPC); assay: Proliferation of dermal papilla cells (MTT, absorbance at 540 nm); format: cell-based; details: peptide 500 nM, 5 μM, and 50 μM, 72 hours, compared to the untreated control group, FIG. 1
# Description: While culturing human hair follicle dermal dermal papilla cells (HHFDPC), the absorbance was measured after treatment with the peptide of the present invention to confirm whether there was an effect of promoting the proliferation of the HHFDPC dermal papilla cells.
# Specifically, HHFDPC (Sciencell, USA) was seeded at 4×10^3 cells/well in a 96-well culture plate, cultured in MSC complete medium (mesenchymal stem cell complete media, Sciencell, USA) for 24 hours, and then the medium was replaced with serum free MSC complete medium and cultured for another 24 hours. Then, the HHFDPC was treated with the peptide of SEQ ID NO: 1 prepared in the Preparation Example at concentrations of 500 nM, 5 μM, and 50 μM, respectively, and cultured at 37° C. for 72 hours. As a positive control, minoxidil was treated at a concentration of 1 μM, and as a negative control, HHFDPC without any treatment was used. Then, 10 ? of 5 mg/ml MTT solution was added and cultured in a 37° C. CO2 incubator for 4 hours to stain the cells. After removing the medium, the cells were treated with 100 μl of DMSO and shaken for 10 minutes, and the number of HHFDPC cells was confirmed by measuring absorbance at a wavelength of 540 nm using a spectrophotometer.
# p-AKT = assay: Western blotting of phosphorylated AKT in HHFDPC; format: cell-based, human; details: peptide 500 nM, 5 μM, and 50 μM, 24 hours, vs control group not treated, FIG. 2
# Description: (§1) First, phosphorylated forms of AKT and ERK, which act as signaling molecules related to the proliferation of HHFDPC, were confirmed through Western blotting. Specifically, HHFDPC as in [Experiment Example 1-1] above was seeded at 4×10^5 cells/well in a 6-well culture plate, cultured in MSC complete medium (mesenchymal stem cell complete media) for 24 hours, and then the medium was replaced with serum free MSC complete medium and cultured for another 24 hours. Then, the HHFDPC was treated with the peptide of SEQ ID NO: 1 prepared in the Preparation Example at concentrations of 500 nM, 5 μM, and 50 μM, respectively, and cultured at 37° C. for 24 hours. As a positive control, minoxidil was treated at a concentration of 1 μM, and as a negative control, HHFDPC without any treatment was used. Then, Western blotting was performed to detect phosphorylated AKT and phosphorylated ERK. After washing with PBS, the cells were treated with 100 ? of lysis buffer to destroy cells, thereby obtaining cell lysate. After electrophoresis using a 10% SDS-PAGE gel, it was transferred to a PVDF membrane and blocked using 5% skim milk at room temperature for 30 minutes. […] After washing again with 0.1% PBS-T (0.1% Tween-20 in PBS) three times for 15 minutes each, p-AKT and p-ERK were detected by treatment with ECL solution (GE Healthcare, USA).
# p-ERK = assay: Western blotting of phosphorylated ERK in HHFDPC; format: cell-based, human; details: peptide 500 nM, 5 μM, and 50 μM, 24 hours, vs control group not treated, FIG. 2
# Description: as §1
# β-catenin = assay: Western blotting of β-catenin moved to the nucleus in HHFDPC; format: cell-based, human; details: HHFDPC nuclear proteins, peptide 500 nM, 5 µM, and 50 μM, 24 hours, vs control group not treated, FIG. 3
# Description: In addition, in addition to p-AKT and p-ERK, in order to confirm the activation of β-catenin, which is known to affect cell proliferation and differentiation, whether β-catenin moved into the nucleus was confirmed through Western blotting. Specifically, the HHFDPC as in [Experiment Example 1-1] was seeded in a 6-well culture plate at an amount of 4×10^5 cells/well, cultured in MSC complete medium (mesenchymal stem cell complete media) for 24 hours. Next, the medium was replaced with serum free MSC complete medium and cultured again for 24 hours. Then, the HHFDPC was treated with the peptide of SEQ ID NO: 1 prepared in the Preparation Example at concentrations of 500 nM, […], and 50 μM, respectively, and cultured at 37° C. for 24 hours. As a positive control, minoxidil was treated at a concentration of 1 μM, and as a negative control, HHFDPC without any treatment was used. After washing with PBS, proteins in the nucleus were isolated using a nuclear protein extraction kit (Thermo scientific, USA). After electrophoresis using a 10% SDS-PAGE gel, it was transferred to a PVDF membrane and blocked using 5% skim milk at room temperature for 30 minutes. […] After washing again with 0.1% PBS-T (0.1% Tween-20 in PBS) three times for 15 minutes each, β-catenin was detected by treatment with ECL solution (GE Healthcare, USA).
# LEF-1 = assay: RT-PCR of LEF-1 expression in HHFDPC; format: cell-based, human; details: peptide 500 nM, 5 μM, and 50 µM, 24 hours, vs control group without any treatment, FIG. 4
# Description: (§2) Furthermore, in order to determine whether the β-catenin moves to the nucleus and is activated to affect proliferation and differentiation, whether the expression of LEF-1, c-Myc and cyclin D1 (cyclin D1), which act as downstream factors, increases with β-catenin activation was confirmed through RT-PCR. Specifically, in the same manner as the previous Western blotting experiment, HHFDPC cells were cultured, treated with the peptides prepared in the Preparation Example of the present invention at concentrations of 500 nM, 5 μM, and 50 µM, respectively, and cultured at 37° C. for 24 hours. After washing the cells with PBS, RNA was isolated by treating them with 300 […] of easy blue (intron, Korea). Then, CDNA was synthesized using a cDNA synthesis kit (enzynomics, Korea) by quantifying it with nano drop, and PCR was performed using primers for LEF-1, c-Myc and cyclin D1 (sequences of the primers are listed in Table 2 below) and PCR premix (enzynomics, Korea). Electrophoresis was performed on a 1.5% agarose gel, and then the mRNA of LEF-1, c-Myc and cyclin D1 was detected using a band analysis system (Bio-Rad gel image system).
# c-Myc = assay: RT-PCR of c-Myc expression in HHFDPC; format: cell-based, human; details: peptide 500 nM, 5 μM, and 50 µM, 24 hours, vs control group without any treatment, FIG. 4
# Description: as §2
# cyclin D1 = assay: RT-PCR of cyclin D1 expression in HHFDPC; format: cell-based, human; details: peptide 500 nM, 5 μM, and 50 µM, 24 hours, vs control group without any treatment, FIG. 4
# Description: as §2
# DKK-1 protein = assay: Western blotting of DKK-1 protein in DHT-treated HHFDPC; format: cell-based, human; details: HHFDPC with DHT 100 nM, peptide 500 nM, 5 μM, and 50 μM, 24 hours, vs negative control (DHT only), FIG. 5
# Description: DKK-1 protein (dickkopf-related protein 1) is a hair loss-related protein known to be highly expressed in individuals with hair loss, especially male pattern hair loss, and its expression is known to be promoted by hormones such as DHT (Dihydrotestosterone). Accordingly, the expression of DKK-1 protein was induced by treating HHFDPC cells with DHT together with the peptide according to the Preparation Example of the present invention, and then the expression level of DKK-1 was measured through Western blotting to determine whether there was an effect of suppressing the expression of DKK-1 protein.
# Specifically, as in [Experiment Example 1-1] above, HHFDPC was seeded in a 6-well culture plate at 4×10^5 cells/well and then cultured in MSC complete medium (mesenchymal stem cell complete media) for 24 hours. Next, the medium was replaced with serum free MSC complete medium and cultured again for 24 hours. […] After washing again with 0.1% PBS-T (0.1% Tween-20 in PBS) three times for 15 minutes each, DKK-1 protein was detected by treatment with ECL solution (GE Healthcare, USA).
# Keratin 14 = assay: RT-PCR of Keratin 14 expression in HHORSC; format: cell-based, human; details: peptide 500 nM, 5 μM, and 50 μM, 72 hours, vs control group without treatment, FIG. 6
# Description: (§3) Specifically, HHORSC (human hair outer root sheath cell, Sciencell, USA) was seeded in a 6-well culture plate at 4×10^5 cells/well and then cultured in MSC complete medium (mesenchymal stem cell complete media) for 24 hours. Next, the medium was replaced with serum free MSC complete medium and cultured again for 24 hours. Then, the HHORSC was treated with the peptide of Preparation Example consisting of amino acid sequence of SEQ ID NO: 1 at concentrations of 500 nM, 5 μM, and 50 μM, respectively, and cultured at 37° C. for 72 hours. As a positive control, EGF was treated at a concentration of 50 nM, and as a negative control, HHORSC without any treatment was used. After washing with PBS, RNA was isolated by treating with 300 ? of easy blue (intron, Korea). Then, CDNA was synthesized using a cDNA synthesis kit (enzynomics, Korea) by quantification using nano drop, and PCR was performed using primers for Keratin 14 and Keratin 19 (base sequences of each primer are listed in Table 3 below) and PCR premix (enzynomics, Korea). Electrophoresis was performed on a 1.5% agarose gel, and the mRNAs of Keratin 14 and Keratin 19 were detected using a band analysis system (Bio-Rad gel image system).
# Keratin 19 = assay: RT-PCR of Keratin 19 expression in HHORSC; format: cell-based, human; details: peptide 500 nM, 5 μM, and 50 μM, 72 hours, vs control group without treatment, FIG. 6
# Description: as §3
# MSX2 = assay: RT-PCR of MSX2 expression in HHGMC; format: cell-based, human; details: peptide 500 nM, 5 μM, and 50 μM, 72 hours, vs untreated control group, FIG. 7
# Description: Specifically, HHGMC (human hair germinal matrix cell, Sciencell, USA) was seeded in a 6-well culture plate at 4×10^5 cells/well and then cultured in MSC complete medium (mesenchymal stem cell complete media) for 24 hours. Next, the medium was replaced with serum free MSC complete medium and cultured again for 24 hours. Then, the HHGMC was treated with the peptide of SEQ ID NO: 1 prepared in the Preparation Example at concentrations of 500 nM, 5 μM, and 50 μM, respectively, and cultured at 37° C. for 72 hours. As a positive control, EGF was treated at a concentration of 50 nM, and as a negative control, HHGMC without any treatment was used. After washing with PBS, RNA was isolated by treating with 300 ? of easy blue (intron, Korea). Next, cDNA was synthesized using a cDNA synthesis kit (enzynomics, Korea) by quantification using nano drop, and PCR was performed using primers for MSX2 (base sequences of the primers are listed in Table 4 below) and PCR premix (enzynomics, Korea). Electrophoresis was performed on a 1.5% agarose gel, and MSX2 mRNA was detected using a band analysis system (Bio-Rad gel image system).
sequence,measurement,setting,value
KLQEHLDM [peptide of the present invention],"proliferation of HHFDPC (absorbance, MTT)",[1],proliferation of HHFDPC was promoted depending on the concentration of the treated peptide
same,phosphorylation of AKT (p-AKT),p-AKT,phosphorylation was found to be increased compared to the control group
same,phosphorylation of ERK (p-ERK),p-ERK,phosphorylation was found to be increased compared to the control group
same,β-catenin moved to the nucleus (activation of β-catenin),β-catenin,migration due to activation of β-catenin increased
same,amount of LEF-1 mRNA,LEF-1,the amount of mRNA increased further compared to the control group
same,amount of c-Myc mRNA,c-Myc,the amount of mRNA increased further compared to the control group
same,amount of cyclin D1 mRNA,cyclin D1,the amount of mRNA increased further compared to the control group
same,amount of DKK-1 protein,DKK-1 protein,the amount of DKK-1 protein was found to be reduced
same,amount of Keratin 14 mRNA,Keratin 14,the amount of mRNA increased further compared to the control group
same,amount of Keratin 19 mRNA,Keratin 19,the amount of mRNA increased further compared to the control group
same,amount of MSX2 mRNA,MSX2,the amount of mRNA increased further compared to the untreated control group
